Source: US5776929A, “Benzodiazepine derivative” (Shionogi & Co., Ltd., priority 1993, dated 1998)

How the values were obtained:
CCK-B receptor = target: T1, CCK-B receptor (Mus musculus, UniProt P56481); test: CCK-B receptor antagonism, displacement of [3H]CCK-8, cerebral cortex crude membrane; assay type: binding, mouse (male ddY); conditions: mouse cerebral cortex membrane, [3H]CCK-8 1 nM, 90 min, 25 °C; read-out: Receptor CCK-B (IC50)
T1 construct: crude membrane specimen from mouse cerebral cortex; from tissue; host or cells: cerebral cortex of male ddY mice, crude membranes
T1 sequence (P56481 1-453): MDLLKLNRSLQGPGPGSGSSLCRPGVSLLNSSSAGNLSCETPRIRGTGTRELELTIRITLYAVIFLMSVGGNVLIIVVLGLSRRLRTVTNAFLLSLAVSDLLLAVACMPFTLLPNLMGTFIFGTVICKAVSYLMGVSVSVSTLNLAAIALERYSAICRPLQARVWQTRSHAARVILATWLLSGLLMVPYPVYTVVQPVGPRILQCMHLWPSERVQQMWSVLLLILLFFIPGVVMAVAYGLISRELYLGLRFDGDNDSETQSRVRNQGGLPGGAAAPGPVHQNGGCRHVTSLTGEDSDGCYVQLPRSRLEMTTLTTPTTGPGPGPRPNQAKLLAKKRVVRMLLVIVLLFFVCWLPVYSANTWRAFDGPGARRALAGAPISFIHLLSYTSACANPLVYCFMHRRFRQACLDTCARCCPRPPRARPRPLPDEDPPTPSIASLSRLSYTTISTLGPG
Method: (§1) Male Hartley guinea pig (450-600 g) or male ddY mouse (24-30 g) were used.
(§2) (2) CCK-A Receptor Antagonism and CCK-B Receptor Antagonism
(§3) Preparation of CCK receptor preparations
(§4) Male ddY mice (24 to 30 g) were killed by decapitation and cerebral cortex (CCK-B) and pancreas (CCK-A) were extracted immediately. Each of cerebral cortex and pancreas was mixed with 50 mM Tris-HCl buffer (pH 7.4) and homogenized with a teflon-glass homogenizer and polytron homogenizer to obtain crude membrane specimens.
(§5) Preparation of test compounds and procedures of displacing assay A 1M solution of a compound to be tested in DMSO is prepared and diluted with 50% DMSO to obtain a ten-fold dilution series.
(§6) The reaction is initiated by the addition of crude membrane specimen to solutions of different concentration each containing [^3 H]CCk-8 (final concentration, 1 nM). The mixture is incubated for 90 min at 25° C., filtered through glass filter with aspiration and washed with a cooled 50 mM Tris buffer. After the addition of Aquazol-2 cocktail the radioactivity is counted. The same procedure was repeated using 50% DMSO solution or Ceruletide (final concentration, 1 μM) instead of a solution of test compound so as to obtain the control value regarding total binding or the value regarding non-specific binding, respectively. […]
(§7) specific binding of control=total binding (cpm)-non-specific binding (cpm); and specific binding of test compound=[…]-non-specific binding (cpm).

gastrin receptor = target: T2, gastrin receptor (Cavia porcellus, UniProt H0VZC5); test: Gastrin receptor antagonism, displacement of 125I-labeled gastrin, gastric (fundic) gland cells; assay type: binding, guinea pig (male Hartley); conditions: guinea pig gastric glands, 125I-gastrin 0.2 nM, 30 min, 25 °C; read-out: Receptor Gastrin (IC50)
T2 construct: stomach was extracted from each animal immediately, from which gastric glands were prepared; from tissue; host or cells: gastric (fundic) glands of male Hartley guinea pigs
T2 sequence (H0VZC5 1-426): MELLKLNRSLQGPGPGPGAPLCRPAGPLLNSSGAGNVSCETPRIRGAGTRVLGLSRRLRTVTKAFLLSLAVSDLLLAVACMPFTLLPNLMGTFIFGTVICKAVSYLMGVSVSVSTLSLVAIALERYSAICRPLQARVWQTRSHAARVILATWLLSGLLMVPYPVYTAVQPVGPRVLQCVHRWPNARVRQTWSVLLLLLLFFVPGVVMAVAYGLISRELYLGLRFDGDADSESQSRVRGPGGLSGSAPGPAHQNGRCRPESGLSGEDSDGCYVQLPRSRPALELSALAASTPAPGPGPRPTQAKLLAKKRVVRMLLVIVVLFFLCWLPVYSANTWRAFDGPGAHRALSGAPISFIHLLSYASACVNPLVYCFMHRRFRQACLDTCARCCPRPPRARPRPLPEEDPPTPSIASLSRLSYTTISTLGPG
Method: as §1
(1) Gastrin Receptor Antagonism
Preparation of gastric glands:
Male Hartley guinea pigs (450-600 g) were killed by bleeding and stomach was extracted from each animal immediately, from which gastric glands were prepared.
Preparation of test compounds and procedures of displacing assay
A 1M solution of a compound to be tested in DMSO is prepared and diluted with 50% DMSO to obtain a ten-fold dilution series.
The mixture is incubated for 30 min at 25° C., centrifuged at 2000 rpm for 5 min and the supernatant is removed by aspiration. To the pellet is added ice-cooled incubation buffer and mixed gently, followed by an immediate centrifugation and removal of the supernatant by aspiration. The radioactivity is counted on gamma counter. The same procedure was repeated using 50% DMSO solution or human gastrin I (final concentration, 2 μM) instead of a solution of test compound so as to obtain the control value regarding total binding or the value regarding non-specific binding, respectively. […]
as §7

gastric acid secretion = test: Inhibitory effect on gastric acid secretion by Schild method (pentagastrin-stimulated); assay type: in vivo, rat (male Sprague Dawley); conditions: intraduodenal, rat, read-out: Inhibitory Effect on acid secretion (Schild method), percent inhibition
Text: Evaluation of Inhibitory Effect on Gastric Acid Secretion by Schild Method
Twenty four hour starved (ad libitum for water) male Sprague Dawley rats (8-week-old) were anesthetized with urethane (1.5 g/kg S.C.) and kept breathing with esophagus cannulas. After laparotomy, esophagus cannulas were inserted orally up to proventriculus and ligated around gastric cardiac. Perfusion cannulas were inserted from duodenum into stomach and ligated around pylorus. Another cannulas were placed into duodenum and ligated for administration of drug. After sutra of abdomen, stomach was perfused via the esophagus cannulas with physiological saline (37° C.) while collecting perfusate for a 15 min interval. The perfusate was subjected to titration with 0.001 N NaOH solution to determine the acidity. When the basal acid secretion became stable, pentagastrin ([…]) was administered in a sustained manner via common carotid vein for about 90 min until the acid secretion reached approximately the highest level, when a test compound (0.5% M.C. suspension) was administered into duodenum through cannulas. The perfusate was collected for a 15 min interval to monitor the acid secretion for 90 min. The percent inhibition was calculated as follows:
Percent inhibition (%)=100×(A-B)/(C-B)
A: the minimum value of total acidity observed after the administration of a test compound;
B: the total acidity obtained immediately before the administration of pentagastrin; and
C: the total acidity obtained immediately before the administration of a test compound.

CCK-A receptor = target: T3, CCK-A receptor (Mus musculus, UniProt O08786); test: CCK-A receptor antagonism, displacement of [3H]CCK-8, pancreas crude membrane; assay type: binding, mouse (male ddY); conditions: mouse pancreas membrane, [3H]CCK-8 1 nM, 90 min, 25 °C; read-out: Receptor CCK-A (IC50)
T3 construct: crude membrane specimen from mouse pancreas; from tissue; host or cells: pancreas of male ddY mice, crude membranes
T3 sequence (O08786 1-436): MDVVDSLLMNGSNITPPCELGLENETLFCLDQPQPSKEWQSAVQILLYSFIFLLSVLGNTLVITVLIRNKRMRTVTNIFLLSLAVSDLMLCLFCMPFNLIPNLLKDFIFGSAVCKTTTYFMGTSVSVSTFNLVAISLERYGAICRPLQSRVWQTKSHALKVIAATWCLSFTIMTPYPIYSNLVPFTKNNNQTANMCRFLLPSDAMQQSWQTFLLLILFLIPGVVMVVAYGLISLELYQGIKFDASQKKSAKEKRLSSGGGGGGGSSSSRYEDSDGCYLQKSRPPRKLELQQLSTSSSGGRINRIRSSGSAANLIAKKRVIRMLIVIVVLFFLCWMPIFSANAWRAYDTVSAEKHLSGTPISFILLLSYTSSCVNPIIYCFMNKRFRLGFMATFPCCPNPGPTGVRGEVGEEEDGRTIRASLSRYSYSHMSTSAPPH
Method: as §1, §2, §3, §4, §5, §6, §7

Compound	IC50 (CCK-B receptor)	IC50 (gastrin receptor)	inhibition in vivo at 0.3 mg/kg (gastric acid secretion)	IC50 (CCK-A receptor)	inhibition in vivo at 0.5 mg/kg (gastric acid secretion; 0.5 mg/kg)
O=C(Nc1cccc(OCc2nnn[nH]2)c1)NC1C(=O)N(CC(=O)C2CC2)c2ccccc2N(CC(=O)C2CC2)C1=O [Compound 17-vii, 1,5-Bis-(cyclopropylcarbonylmethyl)-3-(N'-(m-(tetrazoylmethoxy)phenyl)ureido)-1H-1,5-benzodiazepine-2,4(3H,5H)-dione]	4 nM	11 nM	68%	1800 nM	
O=C(Nc1cccc(-c2nnn[nH]2)c1)NC1C(=O)N(CC2CC2)c2ccccc2N(CC2CC2)C1=O [Compound 19-iv, 1,5-Bis-(cyclopropylmethyl)-3-(N'-(m-tetrazolylphenyl)ureido)-1H-1,5-benzodiazepine-2,4(3H,5H)-dione]	26 nM	6 nM		2600 nM	58%
O=C(Nc1cccc(-c2nnn[nH]2)c1)NC1C(=O)N(CC(=O)c2cccs2)c2ccccc2N(CC(=O)c2cccs2)C1=O [Compound 20-iv, 1,5-Bis-(thienylcarbonylmethyl)-3-(N'-(m-tetrazolylphenyl)ureido)-1H-1,5-benzodiazepine-2,4(3H,5H)-dione]	3 nM	2 nM	65%	380 nM	
O=C(Nc1cccc(C(=O)O)c1)NC1C(=O)N(CC(=O)C2CC2)c2ccccc2N(CC(=O)C2CC2)C1=O [Compound 17-ii]	105 nM	5 nM	72%	> 10000 nM	
COC(=O)Cc1cccc(NC(=O)NC2C(=O)N(CC(=O)C3CC3)c3ccccc3N(CC(=O)C3CC3)C2=O)c1 [Compound 17-xii, 1,5-Bis-(cyclopropylcarbonylmethyl)-3-(N'-(m-(carbomethoxymethyl)phenyl)ureido)-1H-1,5-benzodiazepine-2,4(3H,5H)-dione]	48 nM	15 nM	48%	2500 nM	
Cc1cccc(NC(=O)NC2C(=O)N(CC(=O)N3CCCC3)c3ccccc3N(CC(=O)N3CCCC3)C2=O)c1 [Compound 8a]	54 nM	7 nM	49%	860 nM	
Cc1cccc(NC(=O)NC2C(=O)N(CC(=O)c3ccccc3C)c3ccccc3N(CC(=O)c3ccccc3C)C2=O)c1 [Compound 8d, 1,5-Bis-(o-methylphenacyl)-3-{N'-(m-tolyl)-ureido}-1H-1,5-benzodiazepine-2,4(3H,5H)-dione]	11 nM	4 nM	66%	29 nM	
CC(C)S(=O)(=O)NC(=O)c1cccc(NC(=O)NC2C(=O)N(CC(=O)C3CC3)c3ccccc3N(CC(=O)C3CC3)C2=O)c1 [Compound 17-iii, 1,5-Bis-(cyclopropylcarbonylmethyl)-3-(N'-(m-(isopropylsulfonylaminocarbonyl)phenyl)ureido)-1H-1,5-benzodiazepine-2,4(3H,5H)-dione]	190 nM	6 nM	47%	11500 nM	
O=C(O)Cc1cccc(NC(=O)NC2C(=O)N(CC(=O)C3CC3)c3ccccc3N(CC(=O)C3CC3)C2=O)c1 [Compound 17-xiii, 1,5-Bis-(cyclopropylcarbonylmethyl)-3-(N'-(m-(carbomethyl)phenyl)ureido)-1H-1,5-benzodiazepine-2,4(3H,5H)-dione]	7 nM	2 nM	21%	4800 nM	
O=C(Nc1cccc(-c2nc(=O)o[nH]2)c1)NC1C(=O)N(CC(=O)C2CC2)c2ccccc2N(CC(=O)C2CC2)C1=O [Compound 17-x, 1,5-Bis-(cyclopropylcarbonylmethyl)-3-(N'-(m-(5-keto-1,2,4-oxadiazol-3-yl)phenyl)ureido)-1H-1,5-benzodiazepine-2,4(3H,5H)-dione]	3 nM	1 nM	70%	360 nM	
